The conditions of data set [1]: 298.2 K; 101.33 kPa; Liquid; Pycnometric method.
Data set [2] is described as follows: refractive index (Na D-line) (dimensionless). The following applies: 298.2 K; 101.33 kPa; Liquid; Standard Abbe refractometry.

These results are taken from the NIST ThermoML archive (doi:10.1016/j.fluid.2007.10.011).

Molecules are shown by their SMILES. ± gives the expanded uncertainty stated by the source.

As to `CC(O)c1ccccc1` (stereo unspecified) [1-phenylethanol], in data set [1], the mass density (commonly mass per unit of volume) is listed as 1010 ± 2 kg/m3. In data set [2], the refractive index (usually a measure of how strongly the sample bends light) is 1.5225 ± 0.0008.
On to `CCC(=O)O` [propanoic acid], for which the mass density in data set [1] is on record as 992 ± 1 kg/m3. Further, the refractive index in data set [2] is on record as 1.382 ± 0.001.
Taken in the same sequence, the figures for `C=COC(=O)CC` [vinyl propanoate] were 919 ± 2 kg/m3 and 1.402 ± 0.001.
For the molecule `CCC(=O)OC(C)c1ccccc1` (stereo unspecified) [1-phenylethyl propionate], the mass density in data set [1] is 1007 ± 2 kg/m3. For the same molecule, the refractive index in data set [2] is on record as 1.4865 ± 0.0008.
Turning to `CCCCn1cc[n+](C)c1.F[B-](F)(F)F` [1-butyl-3-methylimidazolium tetrafluoroborate], the mass density in data set [1] came to 1200 ± 10 kg/m3. For the same molecule, the refractive index in data set [2] was 1.422 ± 0.001.
For the molecule `CCCCn1cc[n+](C)c1.F[P-](F)(F)(F)(F)F` [1-butyl-3-methylimidazolium hexafluorophosphate], in data set [1], the mass density came out at 1380 ± 10 kg/m3. Further, the refractive index in data set [2] is 1.41 ± 0.001.
For the molecule `CCn1cc[n+](C)c1.Cc1ccc(S(=O)(=O)[O-])cc1` [1-ethyl-3-methylimidazolium 4-methylbenzenesulfonate], the mass density in data set [1] was found to be 1210 ± 10 kg/m3. In data set [2], the refractive index is listed as 1.538 ± 0.001.
On to `CCCCn1cc[n+](C)c1.COCCOCCOS(=O)(=O)[O-]` [1-butyl-3-methylimidazolium 2-(2-methoxyethoxy)ethyl sulfate], for which the mass density in data set [1] is reported as 1170 ± 10 kg/m3. For the same molecule, the refractive index in data set [2] amounted to 1.48 ± 0.001.
